Measured values as given in US20260315464A1, “COMPOSITIONS, METHODS, AND SYSTEMS FOR MODULATING SPLICING OF MSH3” (REVIR THERAPEUTICS, INC., priority 2023, published 2026).

Test system: MSH3
Test: QPCR assay for levels of MSH3 upon compound treatment in HEK293T or AD293 cells (fold-change of MSH3 transcript, EC50 of MSH3 downregulation; total MSH3 exons 13/14, exons 20/21; Table 8)
Type: cell-based
Details: for mrna remaining at 1 µM / mrna remaining at 10 µM: Homo sapiens, fold-change of the MSH3 transcript, normalized to GAPDH; for mrna remaining at 1 µM: 1 μM compound; for mrna remaining at 10 µM: 10 μM compound; for EC50: EC50 of MSH3 downregulation, XtalPi
Procedure: HEK293T or AD293 cells were treated with Compound 274 at 1 μM and […]. RNA, cDNA and qPCR was prepared using TaqMan Cells-to-CT Express kit (ThermoFisher Scientific). Taqman assays (ThermoFisher Scientific) were used for quantification of total MSH3 exons 13/14 (cat #4351372, ID #: Hs00988993_ml), total MSH3 exons 20/21 (cat #4351372, ID #: Hs00989000_ml), exon 13/PE14A (Fwd: 5′-[…]; Rev: 5′-[…]; Probe: 5′-[…]) and exon 20/PE21A (Fwd: 5′-[…]; Rev: 5′-[…]; Probe: 5′-[…]) mRNA expression. Taqman GAPDH (cat #4448489, ID #: Hs02758991_g1) was used as a reference for data normalization.

| EC50 [nM] | Structure (SMILES) | mrna remaining at 1 µM [%] | mrna remaining at 10 µM [%] |
| --- | --- | --- | --- |
| – | Cn1cc(-c2cc3c(cn2)CN(c2ccc(O[C@H]4C[C@]5(C)CC[C@](C)(C4)N5)nn2)C3=O)c(F)n1 [Compound 107, 2-(6-(((1R,3s,5S)-1,5-dimethyl-8-azabicyclo[3.2.1]octan-3-yl)oxy)pyridazin-3-yl)-6-(3-fluoro-1-methyl-1H-pyrazol-4-yl)-2,3-dihydro-1H-pyrrolo[3,4-c]pyridin-1-one] | 97 | 75 |
| – | Cc1nn(C)cc1-c1cnc2c(c1)C(=O)N(c1ccc(OC3CC(C)(C)NC(C)(C)C3)nn1)C2 [Compound 141, 3-(1,3-dimethyl-1H-pyrazol-4-yl)-6-(6-((2,2,6,6-tetramethylpiperidin-4-yl)oxy)pyridazin-3-yl)-6,7-dihydro-5H-pyrrolo[3,4-b]pyridin-5-one] | 67 | 6 |
| – | CN(c1ccc(N2Cc3ncc(-c4cnn(C)c4)cc3C2=O)nn1)C1CC(C)(C)NC(C)(C)C1 [Compound 148, 6-(6-(methyl(2,2,6,6-tetramethylpiperidin-4-yl)amino)pyridazin-3-yl)-3-(1-methyl-1H-pyrazol-4-yl)-6,7-dihydro-5H-pyrrolo[3,4-b]pyridin-5-one] | 103 | 40 |
| – | Cc1nc(C)c(-c2cnc3c(c2)C(=O)N(c2ccc(OC4CC(C)(C)NC(C)(C)C4)nn2)C3)s1 [Compound 150, 3-(2,4-dimethylthiazol-5-yl)-6-(6-((2,2,6,6-tetramethylpiperidin-4-yl)oxy)pyridazin-3-yl)-6,7-dihydro-5H-pyrrolo[3,4-b]pyridin-5-one] | 116 | 77 |
| – | Cc1nn(C)cc1-c1cnc2c(c1)C(=O)N(c1ccc(N(C)C3CC(C)(C)NC(C)(C)C3)nn1)C2 [Compound 156, 3-(1,3-dimethyl-1H-pyrazol-4-yl)-6-(6-(methyl(2,2,6,6-tetramethylpiperidin-4-yl)amino)pyridazin-3-yl)-6,7-dihydro-5H-pyrrolo[3,4-b]pyridin-5-one] | 81 | 19 |
| – | [2H]C([2H])([2H])n1cc(-c2cnc3c(c2)C(=O)N(c2ccc(N(C)C4CC(C)(C)NC(C)(C)C4)nn2)C3)cn1 [Compound 161, 6-(6-(methyl(2,2,6,6-tetramethylpiperidin-4-yl)amino)pyridazin-3-yl)-3-(1-(methyl-d3)-1H-pyrazol-4-yl)-6,7-dihydro-5H-pyrrolo[3,4-b]pyridin-5-one] | 96 | 70 |
| – | Cc1nc(C)c(-c2cnc3c(c2)C(=O)N(c2ccc(N(C)C4CC(C)(C)NC(C)(C)C4)nn2)C3)s1 [Compound 167, 3-(2,4-dimethylthiazol-5-yl)-6-(6-(methyl(2,2,6,6-tetramethylpiperidin-4-yl)amino)pyridazin-3-yl)-6,7-dihydro-5H-pyrrolo[3,4-b]pyridin-5-one] | 47 | 11 |
| – | Cc1nc(C)c(-c2cnc3c(c2)C(=O)N(c2ccc(O[C@H]4C[C@]5(C)CC[C@](C)(C4)N5)nn2)C3)s1 [Compound 174, 6-(6-(((1R,3s,5S)-1,5-dimethyl-8-azabicyclo[3.2.1]octan-3-yl)oxy)pyridazin-3-yl)-3-(2,4-dimethylthiazol-5-yl)-6,7-dihydro-5H-pyrrolo[3,4-b]pyridin-5-one] | 103 | 62 |
| – | Cc1nn(C)cc1-c1cnc2c(c1)C(=O)N(c1cnc(N(C)[C@H]3C[C@]4(C)CC[C@](C)(C3)N4)nn1)C2 [Compound 175, 3-(1,3-dimethyl-1H-pyrazol-4-yl)-6-(3-(((1R,3s,5S)-1,5-dimethyl-8-azabicyclo[3.2.1]octan-3-yl)(methyl)amino)-1,2,4-triazin-6-yl)-6,7-dihydro-5H-pyrrolo[3,4-b]pyridin-5-one] | 93 | 70 |
| – | Cn1cc(-c2cnc3c(c2)C(=O)N(c2ccc(OC4CC(C)(C)NC(C)(C)C4)nn2)C3)c(C(F)(F)F)n1 [Compound 176, 3-(1-methyl-3-(trifluoromethyl)-1H-pyrazol-4-yl)-6-(6-((2,2,6,6-tetramethylpiperidin-4-yl)oxy)pyridazin-3-yl)-6,7-dihydro-5H-pyrrolo[3,4-b]pyridin-5-one] | 94 | 110 |
| 425 | Cc1nn(C)nc1-c1cnc2c(c1)C(=O)N(c1ccc(N(C)[C@H]3C[C@]4(C)CC[C@](C)(C3)N4)nn1)C2 [Compound 178, 3-(2,5-dimethyl-2H-1,2,3-triazol-4-yl)-6-(6-(((1R,3s,5S)-1,5-dimethyl-8-azabicyclo[3.2.1]octan-3-yl)(methyl)amino)pyridazin-3-yl)-6,7-dihydro-5H-pyrrolo[3,4-b]pyridin-5-one] | 10 | 5 |
| – | Cc1nn(C)nc1-c1cnc2c(c1)C(=O)N(c1ccc(OC3CC(C)(C)NC(C)(C)C3)nn1)C2 [Compound 179, 3-(2,5-dimethyl-2H-1,2,3-triazol-4-yl)-6-(6-((2,2,6,6-tetramethylpiperidin-4-yl)oxy)pyridazin-3-yl)-6,7-dihydro-5H-pyrrolo[3,4-b]pyridin-5-one] | 93 | 8 |
| 1120 | Cc1nn(C)nc1-c1cnc2c(c1)C(=O)N(c1ccc(N(C)C3CC(C)(C)NC(C)(C)C3)nn1)C2 [Compound 180, 3-(2,5-dimethyl-2H-1,2,3-triazol-4-yl)-6-(6-(methyl(2,2,6,6-tetramethylpiperidin-4-yl)amino)pyridazin-3-yl)-6,7-dihydro-5H-pyrrolo[3,4-b]pyridin-5-one] | 50 | 8 |
| – | Cc1nn(C)cc1-c1cnc2c(c1)C(=O)N(c1ccc(O[C@H]3C[C@@]4(C)CC[C@](C)(N4)[C@H]3F)nn1)C2 [Compound 181, 3-(1,3-dimethyl-1H-pyrazol-4-yl)-6-(6-(((1S,2R,3S,5R)-2-fluoro-1,5-dimethyl-8-azabicyclo[3.2.1]octan-3-yl)oxy)pyridazin-3-yl)-6,7-dihydro-5H-pyrrolo[3,4-b]pyridin-5-one] | 92 | 103 |
| – | CN(c1ccc(N2Cc3ncc(-c4cn(C)nc4C(F)(F)F)cc3C2=O)nn1)[C@H]1C[C@]2(C)CC[C@](C)(C1)N2 [Compound 183, 6-(6-(((1R,3s,5S)-1,5-dimethyl-8-azabicyclo[3.2.1]octan-3-yl)(methyl)amino)pyridazin-3-yl)-3-(1-methyl-3-(trifluoromethyl)-1H-pyrazol-4-yl)-6,7-dihydro-5H-pyrrolo[3,4-b]pyridin-5-one] | 99 | 28 |
| – | CN(c1ccc(N2Cc3ncc(-c4cn(C)nc4F)cc3C2=O)nn1)C1CC(C)(C)NC(C)(C)C1 [Compound 187, 3-(3-fluoro-1-methyl-1H-pyrazol-4-yl)-6-(6-(methyl(2,2,6,6-tetramethylpiperidin-4-yl)amino)pyridazin-3-yl)-6,7-dihydro-5H-pyrrolo[3,4-b]pyridin-5-one] | 92 | 25 |
| 960 | CN(c1ccc(N2Cc3ncc(-c4cnn(C)n4)cc3C2=O)nn1)[C@H]1C[C@]2(C)CC[C@](C)(C1)N2 [Compound 188, 6-(6-(((1R,3s,5S)-1,5-dimethyl-8-azabicyclo[3.2.1]octan-3-yl)(methyl)amino)pyridazin-3-yl)-3-(2-methyl-2H-1,2,3-triazol-4-yl)-6,7-dihydro-5H-pyrrolo[3,4-b]pyridin-5-one] | 18 | 5 |
| – | CN(c1ccc(N2Cc3ncc(-c4cnn(C)n4)cc3C2=O)nn1)C1CC(C)(C)NC(C)(C)C1 [Compound 189, 6-(6-(methyl(2,2,6,6-tetramethylpiperidin-4-yl)amino)pyridazin-3-yl)-3-(2-methyl-2H-1,2,3-triazol-4-yl)-6,7-dihydro-5H-pyrrolo[3,4-b]pyridin-5-one] | 73 | 23 |
| – | Cn1cc(-c2cnc3c(c2)C(=O)N(c2ccc(OC4CC(C)(C)NC(C)(C)C4)nn2)C3)c(F)n1 [Compound 190, 3-(3-fluoro-1-methyl-1H-pyrazol-4-yl)-6-(6-((2,2,6,6-tetramethylpiperidin-4-yl)oxy)pyridazin-3-yl)-6,7-dihydro-5H-pyrrolo[3,4-b]pyridin-5-one] | 106 | 45 |
| – | Cn1ncc(-c2cnc3c(c2)C(=O)N(c2ccc(OC4CC(C)(C)NC(C)(C)C4)nn2)C3)n1 [Compound 191, 3-(2-methyl-2H-1,2,3-triazol-4-yl)-6-(6-((2,2,6,6-tetramethylpiperidin-4-yl)oxy)pyridazin-3-yl)-6,7-dihydro-5H-pyrrolo[3,4-b]pyridin-5-one] | 45 | 17 |
| – | Cc1nc(C)c(-c2cnc3c(c2)C(=O)N(c2ccc(O[C@@H]4C[C@]5(C)CC[C@](C)(C4)N5)nn2)C3)s1 [Compound 194, 6-(6-(((1R,3r,5S)-1,5-dimethyl-8-azabicyclo[3.2.1]octan-3-yl)oxy)pyridazin-3-yl)-3-(2,4-dimethylthiazol-5-yl)-6,7-dihydro-5H-pyrrolo[3,4-b]pyridin-5-one] | 224 | 92 |
| – | Cc1nc(C)c(-c2cnc3c(c2)C(=O)N(c2cnc(N(C)C4CC(C)(C)NC(C)(C)C4)nn2)C3)s1 [Compound 195, 3-(2,4-dimethylthiazol-5-yl)-6-(3-(methyl(2,2,6,6-tetramethylpiperidin-4-yl)amino)-1,2,4-triazin-6-yl)-6,7-dihydro-5H-pyrrolo[3,4-b]pyridin-5-one] | 59 | 42 |
